Data as given in PMC4045703 (Bioorganic & medicinal chemistry, 2014).
Converted amounts (≈) assume the structure as drawn.

Experiments:
Cytotoxicity, MTT assay = assay type: cell-based; settings: African green monkey, Vero cells
Mtb-FtsZ [1] = target: T1, Mtb-FtsZ (Mycobacterium tuberculosis, UniProt P9WN95); experiment: Mtb-FtsZ polymerization inhibitory assay; assay type: biochemical; settings: light scattering, Mtb-FtsZ 15 μM, GTP 100 μM
Mtb H37Rv = experiment: MIC determination by microplate Alamar Blue assay; assay type: cell-based; settings: Mycobacterium tuberculosis, read-out: MIC Mtb H37Rv
Mtb-FtsZ [2] = target: T1, Mtb-FtsZ; experiment: Transmission electron microscopy; assay type: biochemical; settings: Mtb-FtsZ 5 μM, GTP 25 μM

T1 sequence (P9WN95 whole entry): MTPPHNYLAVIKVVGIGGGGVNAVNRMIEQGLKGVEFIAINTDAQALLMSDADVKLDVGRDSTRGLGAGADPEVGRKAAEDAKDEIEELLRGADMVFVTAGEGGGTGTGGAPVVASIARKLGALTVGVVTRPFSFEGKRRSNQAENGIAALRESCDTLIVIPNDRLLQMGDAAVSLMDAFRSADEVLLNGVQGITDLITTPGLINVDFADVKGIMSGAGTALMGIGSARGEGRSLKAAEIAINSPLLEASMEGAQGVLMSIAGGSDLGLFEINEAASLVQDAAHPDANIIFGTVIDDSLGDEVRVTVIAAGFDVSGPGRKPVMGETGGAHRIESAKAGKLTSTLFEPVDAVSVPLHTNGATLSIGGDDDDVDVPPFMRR

With `Cc1ccc(C(=O)Nc2cc3nc(C4CCCCC4)[nH]c3cc2Sc2ccccc2)cc1` [Compound 5f, 2-Cyclohexyl-5-(4-methxylbenzamido)-6-(phenylthio)-1H-benzo[d]imidazole] as the compound, how does the IC50 at 3 days (Cytotoxicity, MTT assay) read?
The IC50 at 3 days was > 200 µM.

With `O=C(Nc1cc2nc(C3CCCCC3)[nH]c2cc1Oc1ccc(F)cc1)c1ccc(F)cc1F` [Compound 5d, 2-Cyclohexyl-5-(2,4-difluorobenzamido)-6-(4-fluorophenoxy)-1H-benzo[d]imidazole] as the compound, how does the “Inhibition of FtsZ polymerization” value (Mtb-FtsZ [1]) read?
The value was “inhibited FtsZ polymerization in a dose-dependent manner”.

With `CCCCSc1cc2[nH]c(C3CCCCC3)nc2cc1NC(=O)c1ccc(C)cc1` [Compound 5i, 6-(Butylthio)-5-(4-metylbenzamido)-2-cyclohexyl-1H-benzo[d]imidazole] as the compound, how does the MIC (Mtb H37Rv) read?
The MIC was 1.25 µg/mL (≈ 2.96 µM).

Which “Effect on FtsZ polymers in TEM” value (Mtb-FtsZ [2]; 5a 40 μM) does the source give for `CCCCOC(=O)Nc1cc2nc(C3CCCCC3)[nH]c2cc1Oc1ccc(F)cc1` [Compound 5a, 5-Butoxycarbonylamino-2-cyclohexyl-6-(4-fluorophenoxy)-1H-benzo[d]imidazole] here?
The value was “the length, density and aggregation was visibly reduced”.

And the “Effect on FtsZ polymers in TEM” value (Mtb-FtsZ [2]; 5a 80 μM)?
Its value is “very short and dispersed FtsZ polymers were observed”.

And the “Inhibition of FtsZ polymerization” value (Mtb-FtsZ [1])?
Its value is “inhibited FtsZ polymerization in a dose-dependent manner”.
